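Briefly, cells in 96-well plates were exposed to five compound concentrations for 48 h, and endpoints were estimated by linear interpolation. Here, GI50 denotes the concentration required for 50% inhibition of growth. Definition used: TGI = concentration required for complete inhibition of growth.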
How the values were obtained:
Assay in all cases: NCI tumour cell line growth inhibition, 48 h
SK-MEL-28 melanoma = test system: SK-MEL-28 melanoma
CCRF-CEM leukemia = test system: CCRF-CEM leukemia
HL-60(TB) leukemia = test system: HL-60(TB) leukemia
UACC-62 melanoma = test system: UACC-62 melanoma
NCI-H460 lung = test system: NCI-H460 lung
NCI/ADR-RES ovarian = test system: NCI/ADR-RES ovarian
MDA-MB-468 breast = test system: MDA-MB-468 breast
MCF7 breast = test system: MCF7 breast
SK-MEL-2 melanoma = test system: SK-MEL-2 melanoma
HOP-62 NSCLC = test system: HOP-62 NSCLC
MDA-MB-435 = test system: MDA-MB-435
OVCAR-8 ovarian = test system: OVCAR-8 ovarian
HCT-15 colon = test system: HCT-15 colon
CAKI-1 renal = test system: CAKI-1 renal
SK-MEL-5 melanoma = test system: SK-MEL-5 melanoma
SF-295 CNS = test system: SF-295 CNS
UO-31 renal = test system: UO-31 renal
HT29 colon = test system: HT29 colon
OVCAR-5 ovarian = test system: OVCAR-5 ovarian
KM12 colon = test system: KM12 colon
NCI-H226 lung = test system: NCI-H226 lung
RXF 393 renal = test system: RXF 393 renal
NCI-H23 lung = test system: NCI-H23 lung
HOP-92 NSCLC = test system: HOP-92 NSCLC
OVCAR-4 ovarian = test system: OVCAR-4 ovarian
SK-OV-3 ovarian = test system: SK-OV-3 ovarian
PC-3 prostate = test system: PC-3 prostate
SW-620 colon = test system: SW-620 colon
RPMI-8226 leukemia = test system: RPMI-8226 leukemia
UACC-257 melanoma = test system: UACC-257 melanoma
HS 578T breast = test system: HS 578T breast
SF-268 CNS = test system: SF-268 CNS
A498 renal = test system: A498 renal
786-0 renal = test system: 786-0 renal
MDA-MB-231 breast = test system: MDA-MB-231 breast
M14 melanoma = test system: M14 melanoma
U251 CNS = test system: U251 CNS
SN12C renal = test system: SN12C renal
HCT-116 colon = test system: HCT-116 colon
T-47D breast = test system: T-47D breast
SNB-19 CNS = test system: SNB-19 CNS
MALME-3M melanoma = test system: MALME-3M melanoma
EKVX NSCLC = test system: EKVX NSCLC
DU-145 prostate = test system: DU-145 prostate
SF-539 CNS = test system: SF-539 CNS
BT-549 breast = test system: BT-549 breast
SNB-75 CNS = test system: SNB-75 CNS
ACHN renal = test system: ACHN renal
HCC-2998 colon = test system: HCC-2998 colon
OVCAR-3 ovarian = test system: OVCAR-3 ovarian
TK-10 renal = test system: TK-10 renal
NCI-H522 lung = test system: NCI-H522 lung
COLO 205 colon = test system: COLO 205 colon
IGROV1 ovarian = test system: IGROV1 ovarian
A549 NSCLC = test system: A549 NSCLC
LOX IMVI melanoma = test system: LOX IMVI melanoma

COc1cc2oc(-c3cccc(C(=O)Nc4ccc(Cl)cc4)c3)cc(=O)c2c(OCCN)c1OC
GI50 (SK-MEL-28 melanoma): 1.64 µM
TGI (SK-MEL-28 melanoma): 3.03 µM
GI50 (CCRF-CEM leukemia): 2.16 µM
TGI (CCRF-CEM leukemia): 4.84 µM
GI50 (HL-60(TB) leukemia): 2.38 µM
TGI (HL-60(TB) leukemia): 5.9 µM
GI50 (UACC-62 melanoma): 9.27 µM
TGI (UACC-62 melanoma): 22 µM
GI50 (NCI-H460 lung): 3.17 µM
TGI (NCI-H460 lung): 10.5 µM
GI50 (NCI/ADR-RES ovarian): 13.6 µM
TGI (NCI/ADR-RES ovarian): 30.9 µM
GI50 (MDA-MB-468 breast): 1.52 µM
TGI (MDA-MB-468 breast): 3.03 µM
GI50 (MCF7 breast): 1.66 µM
TGI (MCF7 breast): 3.14 µM
GI50 (SK-MEL-2 melanoma): 4.02 µM
TGI (SK-MEL-2 melanoma): 16.2 µM
GI50 (HOP-62 NSCLC): 1.82 µM
TGI (HOP-62 NSCLC): 4.19 µM
GI50 (MDA-MB-435): 1.82 µM
TGI (MDA-MB-435): 3.65 µM
GI50 (OVCAR-8 ovarian): 4.09 µM
TGI (OVCAR-8 ovarian): 19.4 µM
GI50 (HCT-15 colon): 2.82 µM
TGI (HCT-15 colon): 8.51 µM
GI50 (CAKI-1 renal): 11.2 µM
TGI (CAKI-1 renal): 23.6 µM
GI50 (SK-MEL-5 melanoma): 1.72 µM
TGI (SK-MEL-5 melanoma): 3.33 µM
GI50 (SF-295 CNS): 1.8 µM
TGI (SF-295 CNS): 3.69 µM
GI50 (UO-31 renal): 13 µM
TGI (UO-31 renal): 25.7 µM
GI50 (HT29 colon): 2.28 µM
TGI (HT29 colon): 5.62 µM
GI50 (OVCAR-5 ovarian): 5.14 µM
TGI (OVCAR-5 ovarian): 18 µM
GI50 (KM12 colon): 6.84 µM
TGI (KM12 colon): 23.9 µM
GI50 (NCI-H226 lung): 13.4 µM
TGI (NCI-H226 lung): 30.3 µM
GI50 (RXF 393 renal): 3.23 µM
TGI (RXF 393 renal): 12.7 µM
GI50 (NCI-H23 lung): 6.22 µM
TGI (NCI-H23 lung): 19 µM
GI50 (HOP-92 NSCLC): 2.09 µM
TGI (HOP-92 NSCLC): 16.5 µM
GI50 (OVCAR-4 ovarian): 4.38 µM
TGI (OVCAR-4 ovarian): 16.8 µM
GI50 (SK-OV-3 ovarian): 11.8 µM
TGI (SK-OV-3 ovarian): 31.9 µM
GI50 (PC-3 prostate): 2.89 µM
TGI (PC-3 prostate): 19.8 µM
GI50 (SW-620 colon): 1.85 µM
TGI (SW-620 colon): 3.46 µM
GI50 (RPMI-8226 leukemia): 2.3 µM
TGI (RPMI-8226 leukemia): 5.5 µM
GI50 (UACC-257 melanoma): 1.73 µM
TGI (UACC-257 melanoma): 3.41 µM
GI50 (HS 578T breast): 5.21 µM
TGI (HS 578T breast): 25.3 µM
GI50 (SF-268 CNS): 11.8 µM
TGI (SF-268 CNS): 29.7 µM
GI50 (A498 renal): 20.7 µM
TGI (A498 renal): 40.4 µM
GI50 (786-0 renal): 2.04 µM
TGI (786-0 renal): 4.14 µM
GI50 (MDA-MB-231 breast): 2.63 µM
TGI (MDA-MB-231 breast): 7.92 µM
GI50 (M14 melanoma): 2.02 µM
TGI (M14 melanoma): 4 µM
GI50 (U251 CNS): 1.79 µM
TGI (U251 CNS): 3.27 µM
GI50 (SN12C renal): 6.12 µM
TGI (SN12C renal): 19 µM
GI50 (HCT-116 colon): 2.39 µM
TGI (HCT-116 colon): 5.84 µM
GI50 (T-47D breast): 3.74 µM
TGI (T-47D breast): 23.4 µM
GI50 (SNB-19 CNS): 4.02 µM
TGI (SNB-19 CNS): 13.9 µM
GI50 (MALME-3M melanoma): 1.8 µM
TGI (MALME-3M melanoma): 3.35 µM
GI50 (EKVX NSCLC): 5.66 µM
TGI (EKVX NSCLC): 18.6 µM
GI50 (DU-145 prostate): 5.98 µM
TGI (DU-145 prostate): 18.3 µM
GI50 (SF-539 CNS): 3.13 µM
TGI (SF-539 CNS): 10.2 µM
GI50 (BT-549 breast): 6.3 µM
TGI (BT-549 breast): 25.7 µM
GI50 (SNB-75 CNS): 10.1 µM
TGI (SNB-75 CNS): 24.1 µM
GI50 (ACHN renal): 10.6 µM
TGI (ACHN renal): 22.4 µM
GI50 (HCC-2998 colon): 2.37 µM
TGI (HCC-2998 colon): 6.58 µM
GI50 (OVCAR-3 ovarian): 3.77 µM
TGI (OVCAR-3 ovarian): 11.7 µM
GI50 (TK-10 renal): 7.19 µM
TGI (TK-10 renal): 21.8 µM
GI50 (NCI-H522 lung): 4.24 µM
TGI (NCI-H522 lung): 19.8 µM
GI50 (COLO 205 colon): 3.03 µM
TGI (COLO 205 colon): 12.6 µM
GI50 (IGROV1 ovarian): 4.18 µM
TGI (IGROV1 ovarian): 18.1 µM
GI50 (A549 NSCLC): 4.06 µM
TGI (A549 NSCLC): 20.7 µM
GI50 (LOX IMVI melanoma): 1.48 µM
TGI (LOX IMVI melanoma): 2.8 µM

— PubChem BioAssay (NCI)
